Source: ChEMBL document CHEMBL3864167, “Structure-Activity Relationship, Drug Metabolism and Pharmacokinetics Properties Optimization, and in Vivo Studies of New Brain Penetrant Triple T-Type Calcium Channel Blockers” (J Med Chem, 2016)
Converted amounts (≈) assume the structure as drawn.

How the values were obtained:
[1] = system: Rattus norvegicus; experiment: Toxicity in WAG/Rij rat model of generalized nonconvulsive absence like epilepsy at 100 mg/kg, po administered as single dose; type: organism-based; details: in vivo
[2] = target: Voltage-dependent T-type calcium channel subunit alpha-1G (Homo sapiens, UniProt O43497); experiment: Channel blocking activity at recombinant human CaV 3.1 channel expressed in HEK293 cells assessed as inhibition of Ca2+ flux preincubated for 3 mins followed by CaCl2 addition by fluo-4 dye-based FLIPR assay; type: cell-based
Sequence of Voltage-dependent T-type calcium channel subunit alpha-1G (O43497 whole entry): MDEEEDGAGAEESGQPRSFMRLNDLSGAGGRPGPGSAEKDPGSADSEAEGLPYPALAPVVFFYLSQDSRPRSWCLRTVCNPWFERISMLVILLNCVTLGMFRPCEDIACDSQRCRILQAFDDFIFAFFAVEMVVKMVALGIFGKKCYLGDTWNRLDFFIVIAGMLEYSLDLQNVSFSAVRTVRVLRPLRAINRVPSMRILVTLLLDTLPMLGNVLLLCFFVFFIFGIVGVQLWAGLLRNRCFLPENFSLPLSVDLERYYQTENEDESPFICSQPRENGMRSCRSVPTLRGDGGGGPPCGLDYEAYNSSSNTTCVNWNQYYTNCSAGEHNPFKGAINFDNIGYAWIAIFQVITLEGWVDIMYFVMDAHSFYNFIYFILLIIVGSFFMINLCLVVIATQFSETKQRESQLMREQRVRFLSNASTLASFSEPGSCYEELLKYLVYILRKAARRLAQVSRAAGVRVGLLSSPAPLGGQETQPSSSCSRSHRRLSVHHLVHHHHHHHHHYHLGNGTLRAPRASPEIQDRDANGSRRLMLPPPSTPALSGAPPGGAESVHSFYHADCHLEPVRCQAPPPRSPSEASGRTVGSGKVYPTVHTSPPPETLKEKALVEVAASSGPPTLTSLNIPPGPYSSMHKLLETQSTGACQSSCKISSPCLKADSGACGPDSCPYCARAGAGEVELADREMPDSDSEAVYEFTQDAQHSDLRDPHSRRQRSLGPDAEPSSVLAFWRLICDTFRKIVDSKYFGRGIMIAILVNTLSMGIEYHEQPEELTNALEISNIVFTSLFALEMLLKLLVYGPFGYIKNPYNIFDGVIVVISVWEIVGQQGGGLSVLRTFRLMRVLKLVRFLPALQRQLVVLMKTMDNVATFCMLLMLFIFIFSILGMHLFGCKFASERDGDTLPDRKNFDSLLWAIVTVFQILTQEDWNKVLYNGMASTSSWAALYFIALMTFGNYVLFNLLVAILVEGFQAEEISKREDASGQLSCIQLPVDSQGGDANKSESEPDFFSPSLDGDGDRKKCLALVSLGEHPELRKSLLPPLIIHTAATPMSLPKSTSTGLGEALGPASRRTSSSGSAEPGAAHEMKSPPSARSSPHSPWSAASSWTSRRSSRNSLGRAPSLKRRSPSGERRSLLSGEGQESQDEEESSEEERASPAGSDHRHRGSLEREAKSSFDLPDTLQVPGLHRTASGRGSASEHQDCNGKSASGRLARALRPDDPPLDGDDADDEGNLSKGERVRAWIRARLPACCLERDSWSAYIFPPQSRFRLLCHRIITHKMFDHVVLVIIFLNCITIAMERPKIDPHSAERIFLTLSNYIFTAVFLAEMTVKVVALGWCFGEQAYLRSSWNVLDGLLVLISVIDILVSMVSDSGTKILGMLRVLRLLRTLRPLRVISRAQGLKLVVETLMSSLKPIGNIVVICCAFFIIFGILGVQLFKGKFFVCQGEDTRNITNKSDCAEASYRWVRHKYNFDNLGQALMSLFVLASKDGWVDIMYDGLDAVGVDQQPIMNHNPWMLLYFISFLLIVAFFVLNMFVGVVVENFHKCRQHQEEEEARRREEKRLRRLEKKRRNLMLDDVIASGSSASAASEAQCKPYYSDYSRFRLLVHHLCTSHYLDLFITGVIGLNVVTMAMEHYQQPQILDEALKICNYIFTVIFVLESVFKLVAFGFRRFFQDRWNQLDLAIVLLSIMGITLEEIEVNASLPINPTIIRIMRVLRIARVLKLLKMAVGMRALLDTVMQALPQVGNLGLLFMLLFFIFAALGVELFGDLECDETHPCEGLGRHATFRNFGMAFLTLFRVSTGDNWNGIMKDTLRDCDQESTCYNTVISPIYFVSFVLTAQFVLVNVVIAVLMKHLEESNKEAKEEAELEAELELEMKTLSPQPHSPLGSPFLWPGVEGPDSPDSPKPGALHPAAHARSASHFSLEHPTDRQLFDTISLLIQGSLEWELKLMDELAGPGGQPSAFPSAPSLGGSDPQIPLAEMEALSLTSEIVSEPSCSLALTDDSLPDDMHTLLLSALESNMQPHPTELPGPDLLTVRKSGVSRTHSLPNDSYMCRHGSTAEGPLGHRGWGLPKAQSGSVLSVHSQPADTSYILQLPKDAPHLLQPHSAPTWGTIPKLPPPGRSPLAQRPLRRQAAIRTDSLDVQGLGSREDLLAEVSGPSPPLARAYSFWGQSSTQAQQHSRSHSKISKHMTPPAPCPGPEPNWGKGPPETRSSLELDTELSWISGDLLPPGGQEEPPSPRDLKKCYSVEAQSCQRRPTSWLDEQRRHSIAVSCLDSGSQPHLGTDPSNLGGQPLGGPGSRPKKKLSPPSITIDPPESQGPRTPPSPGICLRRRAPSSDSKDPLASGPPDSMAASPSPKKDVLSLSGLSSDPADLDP

[3] = target: Voltage-dependent T-type calcium channel subunit alpha-1H (Homo sapiens, UniProt O95180); experiment: Channel blocking activity at recombinant human CaV 3.2 channel expressed in HEK293 cells assessed as inhibition of Ca2+ flux preincubated for 3 mins followed by CaCl2 addition by fluo-4 dye-based FLIPR assay; type: cell-based
Sequence of Voltage-dependent T-type calcium channel subunit alpha-1H (O95180 whole entry): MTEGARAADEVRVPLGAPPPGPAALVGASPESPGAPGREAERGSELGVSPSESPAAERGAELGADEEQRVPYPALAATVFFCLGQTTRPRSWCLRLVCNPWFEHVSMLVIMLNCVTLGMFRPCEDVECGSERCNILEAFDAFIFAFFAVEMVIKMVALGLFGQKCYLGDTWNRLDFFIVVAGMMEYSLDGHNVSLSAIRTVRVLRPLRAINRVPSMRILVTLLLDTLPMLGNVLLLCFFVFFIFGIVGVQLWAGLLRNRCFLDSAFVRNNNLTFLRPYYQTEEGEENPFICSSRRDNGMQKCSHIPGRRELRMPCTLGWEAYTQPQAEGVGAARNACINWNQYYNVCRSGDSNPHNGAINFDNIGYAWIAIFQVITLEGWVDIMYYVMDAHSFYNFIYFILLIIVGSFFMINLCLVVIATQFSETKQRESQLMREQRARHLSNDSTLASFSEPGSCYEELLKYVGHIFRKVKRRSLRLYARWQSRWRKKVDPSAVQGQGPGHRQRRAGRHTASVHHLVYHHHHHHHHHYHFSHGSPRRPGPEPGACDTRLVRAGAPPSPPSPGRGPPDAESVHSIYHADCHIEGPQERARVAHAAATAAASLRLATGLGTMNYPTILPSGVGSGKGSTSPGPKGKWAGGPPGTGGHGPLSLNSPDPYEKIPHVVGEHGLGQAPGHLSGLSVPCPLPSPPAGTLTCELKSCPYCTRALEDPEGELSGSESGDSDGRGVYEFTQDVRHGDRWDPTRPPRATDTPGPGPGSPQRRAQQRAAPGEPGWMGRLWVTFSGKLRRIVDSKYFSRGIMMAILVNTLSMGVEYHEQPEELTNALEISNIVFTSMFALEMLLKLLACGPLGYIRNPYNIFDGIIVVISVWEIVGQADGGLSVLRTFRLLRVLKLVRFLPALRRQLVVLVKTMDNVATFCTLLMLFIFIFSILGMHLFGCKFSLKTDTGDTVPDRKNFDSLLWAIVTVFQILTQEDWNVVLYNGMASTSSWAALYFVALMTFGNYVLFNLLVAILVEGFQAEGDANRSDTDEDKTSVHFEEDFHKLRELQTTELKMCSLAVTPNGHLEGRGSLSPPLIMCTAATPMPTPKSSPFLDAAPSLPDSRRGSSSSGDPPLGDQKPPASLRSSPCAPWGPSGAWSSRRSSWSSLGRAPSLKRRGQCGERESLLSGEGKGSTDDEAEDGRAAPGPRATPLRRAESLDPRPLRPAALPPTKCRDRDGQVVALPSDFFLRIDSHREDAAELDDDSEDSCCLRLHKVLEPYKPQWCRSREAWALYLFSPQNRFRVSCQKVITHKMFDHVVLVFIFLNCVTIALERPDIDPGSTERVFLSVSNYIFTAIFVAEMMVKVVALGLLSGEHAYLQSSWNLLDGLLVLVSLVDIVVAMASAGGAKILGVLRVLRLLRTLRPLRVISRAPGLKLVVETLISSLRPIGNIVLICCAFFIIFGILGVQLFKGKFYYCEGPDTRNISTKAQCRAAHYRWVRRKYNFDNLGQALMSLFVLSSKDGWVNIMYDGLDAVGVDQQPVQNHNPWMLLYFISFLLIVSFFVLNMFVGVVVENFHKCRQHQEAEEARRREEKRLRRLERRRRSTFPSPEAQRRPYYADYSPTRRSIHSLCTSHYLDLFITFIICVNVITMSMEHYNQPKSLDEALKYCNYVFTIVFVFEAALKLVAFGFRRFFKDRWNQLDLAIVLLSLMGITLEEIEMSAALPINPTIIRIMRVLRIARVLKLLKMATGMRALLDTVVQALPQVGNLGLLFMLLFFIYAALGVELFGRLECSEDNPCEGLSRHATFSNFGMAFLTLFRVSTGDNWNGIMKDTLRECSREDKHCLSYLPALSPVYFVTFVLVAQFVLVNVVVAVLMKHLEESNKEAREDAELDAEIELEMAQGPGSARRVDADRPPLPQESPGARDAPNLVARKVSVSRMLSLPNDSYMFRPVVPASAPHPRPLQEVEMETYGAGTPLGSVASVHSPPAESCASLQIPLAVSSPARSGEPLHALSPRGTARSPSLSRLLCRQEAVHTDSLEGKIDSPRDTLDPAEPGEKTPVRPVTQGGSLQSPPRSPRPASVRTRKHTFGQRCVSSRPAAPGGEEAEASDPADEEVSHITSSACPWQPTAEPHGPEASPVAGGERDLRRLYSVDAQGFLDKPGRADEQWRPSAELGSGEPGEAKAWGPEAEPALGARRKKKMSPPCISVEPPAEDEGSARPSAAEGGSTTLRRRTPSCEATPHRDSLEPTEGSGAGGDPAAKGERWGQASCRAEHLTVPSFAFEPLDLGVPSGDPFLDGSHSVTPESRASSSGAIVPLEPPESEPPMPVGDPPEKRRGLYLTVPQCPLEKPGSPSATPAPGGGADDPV

[4] = target: Cytochrome P450 3A4 (Homo sapiens, UniProt P08684); experiment: Inhibition of CYP3A4 (unknown origin); type: ADME
[5] = target: Voltage-dependent T-type calcium channel subunit alpha-1I (Homo sapiens, UniProt Q9P0X4); experiment: Channel blocking activity at recombinant human CaV 3.3 channel expressed in HEK293 cells assessed as inhibition of Ca2+ flux preincubated for 3 mins followed by CaCl2 addition by fluo-4 dye-based FLIPR assay; type: cell-based
[6] = Antiepileptic activity in WAG/Rij rat model of generalized nonconvulsive absence like epilepsy implanted with telemetric transmitter assessed as reduction in cumulated duration of seizures at 100 mg/kg, po administered as single dose at nocturnal active phase measured after 12 hrs by […] analysis; type: functional, organism-based; parameters: scale not given: the % may be the effect or the level left
[7] = (§1) Antiepileptic activity in WAG/Rij rat model of generalized nonconvulsive absence like epilepsy implanted with telemetric transmitter assessed as reduction in number of seizures at 100 mg/kg, po administered as single dose at nocturnal active phase measured after 3 hrs by […] analysis; type: functional, organism-based; parameters: scale not given: the % may be the effect or the level left
[8] = as §1, with “12” for “3”, “analysis relative to control” for “analysis”; type: functional, organism-based; parameters: scale not given: the % may be the effect or the level left
[9] = Unbound brain concentration in Wistar rat at 100 mg/kg, po after 1 hr by LC-MS/MS analysis; type: ADME, organism-based; details: in vivo
[10] = system: MDR1; experiment: Efflux ratio for apparent permeability in MDCK1 cells expressing MDR1; type: ADME, cell-based, Canis lupus familiaris; details: dog, MDCK-MDR1
[11] = system: MDR1; experiment: Apparent permeability from apical side to basolateral side in MDCK1 cells expressing MDR1; type: ADME, cell-based, Canis lupus familiaris; details: dog, MDCK-MDR1
[12] = Fraction unbound in Wistar rat plasma at 100 mg/kg, po after 1 hr by LC-MS/MS analysis; type: ADME, organism-based
[13] = Drug uptake in Wistar rat cerebrospinal fluid at 100 mg/kg, po after 1 hr by LC-MS/MS analysis; type: ADME, organism-based; details: read-out: Drug uptake
[14] = Unbound plasma concentration in Wistar rat at 100 mg/kg, po after 1 hr by LC-MS/MS analysis; type: ADME, organism-based; details: in vivo
[15] = Ratio of unbound brain concentration in Wistar rat to IC50 for recombinant human CaV 3.1 channel expressed in HEK293 cells; type: ADME, cell-based
[16] = Intrinsic clearance in human liver microsomes at 1 uM up to 15 mins in presence of NADPH by LC-MS-MS analysis; type: ADME; details: read-out: CLH
[17] = Solubility of the compound in fed state simulated intestinal fluid; type: ADME; details: fed state simulated intestinal fluid (FeSSIF)
[18] = Drug uptake in Wistar rat brain at 100 mg/kg, po after 1 hr by LC-MS/MS analysis; type: ADME, organism-based; details: read-out: Drug uptake
[19] = Ratio of unbound brain concentration to unbound plasma concentration in Wistar rat at 100 mg/kg, po after 1 hr by LC-MS/MS analysis; type: ADME, organism-based
[20] = Drug uptake in Wistar rat plasma at 100 mg/kg, po after 1 hr by LC-MS/MS analysis; type: ADME, organism-based
[21] = system: MDR1; experiment: Apparent permeability from basolateral side to apical side in MDCK1 cells expressing MDR1; type: ADME, cell-based, Canis lupus familiaris; details: dog, MDCK-MDR1
[22] = AUC in Wistar rat at 100 mg/kg administered through oral gavage up to 24 hrs by LC-MS-MS analysis; type: ADME, organism-based; parameters: dose 100 mg/kg, time < 24 hr, route oral; details: in vivo
[23] = Tmax in Wistar rat at 100 mg/kg administered through oral gavage by LC-MS-MS analysis; type: ADME, organism-based; details: in vivo
[24] = Ratio of unbound brain concentration in Wistar rat to IC50 for recombinant human CaV 3.3 channel expressed in HEK293 cells; type: ADME, cell-based
[25] = Solubility of the compound at pH 7; type: physicochemical; details: buffer
[26] = Lipophilicity, logD of compund at pH 7.4; type: physicochemical; details: buffer
[27] = Dissociation constant, pKa of compound; type: physicochemical
[28] = Ratio of unbound brain concentration in Wistar rat to IC50 for recombinant human CaV 3.2 channel expressed in HEK293 cells; type: ADME, cell-based
[29] = Cmax in Wistar rat at 100 mg/kg administered through oral gavage up to 24 hrs by LC-MS-MS analysis; type: ADME, organism-based; parameters: dose 100 mg/kg, route oral; details: in vivo
[30] = Ratio of drug level in brain to plasma in Wistar rat at 100 mg/kg, po after 1 hr by LC-MS/MS analysis; type: ADME, organism-based
[31] = Fraction unbound in Wistar rat brain at 100 mg/kg, po after 1 hr by LC-MS/MS analysis; type: ADME, organism-based
[32] = Solubility of the compound in fast state simulated intestinal fluid; type: ADME; details: fasted state simulated intestinal fluid (FaSSIF)
[33] = Intrinsic clearance in Wistar rat liver microsomes at 1 uM up to 15 mins in presence of NADPH by LC-MS-MS analysis; type: ADME; details: read-out: CLH
[34] = Drug level in human liver microsomes treated with (+/-)-1-((3R,5S)-1-benzyl-3,5-dimethyl-2,3-dihydro-1H-benzo[e][1,4]diazepin-4(5H)-yl)-3-methoxypropan-1-one at 10 uM after 30 mins by LC-MS/MS analysis; type: ADME; details: 0.5 h
[35] = Drug metabolism in human liver microsomes assessed as (+/-)-1-((3R,5S)-3,5-dimethyl-2,3-dihydro-1H-benzo[e][1,4]diazepin-4(5H)-yl)-3-methoxypropan-1-one metabolite formation at 10 uM after 30 mins by LC-MS/MS analysis; type: ADME; details: 0.5 h

Structure (SMILES)	IC50 [2] [nM]	IC50 [3] [nM]	IC50 [5] [nM]	efflux ratio [10]	Papp A→B [11] [×10⁻⁶ cm/s]	microsomal CLint at 1 µM [16] [µL/min/mg]	solubility [17] [µg/mL]	Papp B→A [21] [×10⁻⁶ cm/s]	solubility [25] [µg/mL]	logD [26]	pKa [27]	solubility [32] [µg/mL]	microsomal CLint at 1 µM [33] [µL/min/mg]	further results
C[C@@H]1CN(Cc2ccccc2)c2cnccc2[C@H](C)N1C(=O)NCc1ccccc1 [listing 1 of 2 here]	138	102	11	–	–	–	–	–	–	–	–	–	–	Activity [1]: Non-Toxic; IC50 [4]: 23 to 31 nM
C[C@@H]1CN(Cc2ccccc2)c2cnccc2[C@H](C)N1C(=O)NCc1ccccc1 [listing 2 of 2 here]	–	–	–	–	–	–	–	–	–	–	–	–	–	Activity [6]: 50%; Activity [7]: 100%; Activity [8]: 50%
C[C@@H]1CN(Cc2ccccc2)c2cnccc2[C@H](C)N1C(=O)NCc1ccccc1 (racemic)	142	236	25	3.4	16.6	276	318 (≈ 794 µM)	55.8	42 (≈ 105 µM)	3.1	6.2	89 (≈ 222 µM)	–	Drug uptake(free) [9]: 35 nM; fraction unbound at 1 h [12]: 0.019; concentration at 1 h [13]: 494 nM; Cp(f) [14]: 128 nM; Ratio [15]: 0.25; concentration at 1 h [18]: 1600 nM; BPR [19]: 27%; concentration at 1 h [20]: 6780 nM; AUC at 24 h [22]: 21800 ng·h/mL; Tmax [23]: 30 min; Ratio [24]: 1.5; Ratio [28]: 0.15; Cmax [29]: 5440 ng/mL; BPR [30]: 24%; fraction unbound at 1 h [31]: 0.022
C[C@@H]1CN(Cc2ccccc2)c2cncc(F)c2[C@H](C)N1C(=O)Nc1cccnc1 (racemic)	107	240	133	60	0.9	83	–	53.8	177 (≈ 437 µM)	3.3	3.8 to 4.7	–	500	–
COc1ccc(CNC(=O)N2[C@H](C)CN(CCC(C)C)c3cnccc3[C@@H]2C)cc1 (racemic)	76	55	25	5.1	10.6	94	–	54.5	9 (≈ 21.9 µM)	4	6.4	–	885	–
C[C@@H]1CN(Cc2ccccc2)c2ccccc2[C@H](C)N1C(=O)NCc1ccccc1 (racemic)	17	35	8	–	–	> 1250	20 (≈ 50.1 µM)	–	< 1	> 4.1	–	6 (≈ 15 µM)	> 1250	–
COCCC(=O)N1[C@H](C)CNc2ccccc2[C@@H]1C (racemic)	–	–	–	–	–	–	–	–	–	–	–	–	–	Drug metabolism [34]: Metabolite_Detected
CC(C)CCN1C[C@@H](C)N(C(=O)Nc2cccnc2)[C@@H](C)c2ccncc21 (racemic)	613	604	251	140	0.4	30	–	56	309 (≈ 841 µM)	3.2	4.4 to 6.3	–	496	–
COCCC(=O)N1[C@H](C)CN(Cc2ccccc2)c2ccccc2[C@@H]1C (racemic)	–	–	–	–	–	> 1250	195 (≈ 553 µM)	–	27 (≈ 76.6 µM)	–	–	58 (≈ 165 µM)	> 1250	Drug metabolism [35]: Metabolite_Detected
